Measured values as given in the supplement of paper PMC9663587.

Columns and labels:
Assay in all cases: increase in dead-cell fraction, 72 h; higher = more death;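 note: breast cancer cell lines in 384-well plates, stained with Hoechst plus LIVE/DEAD far red dye and imaged, cells above an LDR intensity threshold counted dead, Hoechst-negative corpses included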
[1] = compound: COc1cc2nccc(Oc3ccc(NC(=O)C4(C(=O)Nc5ccc(F)cc5)CC4)cc3)c2cc1OC [Cabozantinib]; conditions: 10 µM
[2] = compound: COc1ccc2c(c1)[C@]1(C[C@H]1c1ccc3c(/C=C/c4ccc(CN5C[C@@H](C)O[C@@H](C)C5)cc4)n[nH]c3c1)C(=O)N2
[3] = compound: CS(=O)(=O)N1CCN(Cc2cc3nc(-c4cccc5[nH]ncc45)nc(N4CCOCC4)c3s2)CC1 [Pictilisib/GDC0941]
[4] = compound: C[C@@H]1COCCN1c1cc(C2([S@](C)(=N)=O)CC2)nc(-c2cc[nH]c3nccc2-3)n1 [AZD6738]
[5] = compound: Cc1cc(Nc2ncc(Cl)c(Nc3ccccc3S(=O)(=O)C(C)C)n2)c(OC(C)C)cc1C1CCNCC1 [Ceritinib/LDK378]
[6] = compound: Cc1nc(-c2cn3c(n2)-c2ccc(-c4cnn(C(C)(C)C(N)=O)c4)cc2OCC3)n(C(C)C)n1 [Taselisib/GDC0032]
[7] = compound: NC1(C(=O)N[C@@H](CCO)c2ccc(Cl)cc2)CCN(c2nc[nH]c3nccc2-3)CC1 [AZD5363]

In the case of AU565, the “increase in dead-cell fraction” value [1] is reported as 0.0274, the “increase in dead-cell fraction” value ([2]; 0.0001 µM) is reported as 0.0001 and the “increase in dead-cell fraction” value ([2]; 0.0003162 µM) is reported as -0.0015. For the same cell line, the “increase in dead-cell fraction” value ([2]; 0.001 µM) was 0.0053, the “increase in dead-cell fraction” value ([2]; 0.003162 µM) was 0.016 and the “increase in dead-cell fraction” value ([2]; 0.01 µM) was 0.139. For the same cell line, the “increase in dead-cell fraction” value ([2]; 0.03162 µM) was 0.126, the “increase in dead-cell fraction” value ([2]; 0.1 µM) was 0.108 and the “increase in dead-cell fraction” value ([2]; 0.3162 µM) was 0.0794. The “increase in dead-cell fraction” value ([2]; 1 µM) was 0.121, the “increase in dead-cell fraction” value ([3]; 0.001 µM) was 0.0052 and the “increase in dead-cell fraction” value ([3]; 0.003162 µM) was 0.007. The “increase in dead-cell fraction” value ([3]; 0.01 µM) was 0.0001, the “increase in dead-cell fraction” value ([3]; 0.03162 µM) was 0.0063 and the “increase in dead-cell fraction” value ([3]; 0.1 µM) was 0.0196. For the same cell line, the “increase in dead-cell fraction” value ([3]; 0.3162 µM) was 0.0368, the “increase in dead-cell fraction” value ([3]; 1 µM) was 0.0866 and the “increase in dead-cell fraction” value ([3]; 3.162 µM) was 0.126. The “increase in dead-cell fraction” value ([3]; 10 µM) was 0.19, the “increase in dead-cell fraction” value ([4]; 0.001 µM) was 0.0013 and the “increase in dead-cell fraction” value ([4]; 0.003162 µM) was 0.0103. The “increase in dead-cell fraction” value ([4]; 0.01 µM) was -0.0124, the “increase in dead-cell fraction” value ([4]; 0.03162 µM) was -0.0113 and the “increase in dead-cell fraction” value ([4]; 0.1 µM) was -0.0075. For the same cell line, the “increase in dead-cell fraction” value ([4]; 0.3162 µM) was -0.003, the “increase in dead-cell fraction” value ([4]; 1 µM) was 0.0064 and the “increase in dead-cell fraction” value ([4]; 3.162 µM) was 0.0079. For the same cell line, the “increase in dead-cell fraction” value ([4]; 10 µM) was 0.0831, the “increase in dead-cell fraction” value ([5]; 0.001 µM) was -0.0009 and the “increase in dead-cell fraction” value ([5]; 0.003162 µM) was 0.0007. For the same cell line, the “increase in dead-cell fraction” value ([5]; 0.01 µM) was 0.001, the “increase in dead-cell fraction” value ([5]; 0.03162 µM) was -0.0017 and the “increase in dead-cell fraction” value ([5]; 0.1 µM) was -0.004. For the same cell line, the “increase in dead-cell fraction” value ([5]; 0.3162 µM) was 0.0015, the “increase in dead-cell fraction” value ([5]; 1 µM) was 0.0037 and the “increase in dead-cell fraction” value ([5]; 3.162 µM) was 0.0216. For the same cell line, the “increase in dead-cell fraction” value ([6]; 0.001 µM) was 0.0087, the “increase in dead-cell fraction” value ([6]; 0.003162 µM) was 0.0153 and the “increase in dead-cell fraction” value ([6]; 0.01 µM) was 0.0378. The “increase in dead-cell fraction” value ([6]; 0.03162 µM) was 0.0611, the “increase in dead-cell fraction” value ([6]; 0.1 µM) was 0.0674 and the “increase in dead-cell fraction” value ([6]; 0.3162 µM) was 0.0853. The “increase in dead-cell fraction” value ([6]; 1 µM) was 0.0898, the “increase in dead-cell fraction” value ([6]; 3.162 µM) was 0.0794 and the “increase in dead-cell fraction” value ([6]; 10 µM) was 0.207. For the same cell line, the “increase in dead-cell fraction” value ([7]; 0.001 µM) was -0.0047, the “increase in dead-cell fraction” value ([7]; 0.003162 µM) was 0.0058 and the “increase in dead-cell fraction” value ([7]; 0.01 µM) was 0.0054. For the same cell line, the “increase in dead-cell fraction” value ([7]; 0.03162 µM) was 0.0087, the “increase in dead-cell fraction” value ([7]; 0.1 µM) was 0.0196 and the “increase in dead-cell fraction” value ([7]; 0.3162 µM) was -0.0036. For the same cell line, the “increase in dead-cell fraction” value ([7]; 1 µM) was 0.0183, the “increase in dead-cell fraction” value ([7]; 3.162 µM) was 0.0124 and the “increase in dead-cell fraction” value ([7]; 10 µM) was 0.0512.
